Common to all, as to assay: inhibition of tumour cell growth, NCI panel, 48 h
In test [1] the test system is ACHN.
The subject of test [2] is CAKI-1.
Test [3] deals with UACC-62.
Test [4] concerns M14.
In test [5] the test system is Malme-3M.
For test [6], the system named is OVCAR-5.
The test system of test [7] is SK-MEL-2.
For test [8], the system named is LOX IMVI.
Test [9] concerns NCI-H23.
The test system of test [10] is UACC-257.
Test [11] concerns HCT-116.
Test [12] deals with 786-0.
The test system of test [13] is NCI-H460.
Test [14] has as its system COLO 205.
Test [15] relates to U-251.
Test [16] concerns HOP-62.
Test [17] relates to HL-60.
The subject of test [18] is OVCAR-3.
The test system of test [19] is MDA-MB-435.
The test system of test [20] is SNB-75.

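Where inhibition never reached the appropriate level, the endpoint shown equals the highest concentration tested. Otherwise, values were interpolated linearly from a five-concentration, 48-hour dose response in 96-well plates. GI50: concentration for 50% inhibition of growth.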 Active and inactive are the calls of the source. Rule as the data show it: active = GI50 up to about 1.1 µM and inactive = higher. Where a SMILES comes first, the peptide text is derived from it. The star is where a group is joined. CH2Cl = ClC*

The values below come from ChEMBL document CHEMBL1201862, “PubChem BioAssay data set” (2004).

As to `Cc1cc(S(=O)(=O)Nc2nnc3cc(C(F)(F)F)cc(C)n23)c(S)cc1Cl`, the GI50 in [1] was > 100000 nM (inactive); in test [2], 97500 nM (inactive); in test [3], 56400 nM (inactive); in test [4], 77300 nM (inactive); in test [5], > 100000 nM (inactive); in test [6], > 84900 nM (inactive). For the same compound, the GI50 is 30700 nM (inactive) in test [7]; > 100000 nM (inactive) in [8]; > 100000 nM (inactive) in test [9]; > 100000 nM (inactive) in [10]; > 81800 nM (inactive) in test [11]; > 80500 nM (inactive) in [12]. Besides, the GI50 in test [13] was 19500 nM (inactive); in [14], > 100000 nM (inactive); in [15] it was 29000 nM (inactive); in [16], 35200 nM (inactive); in [17], > 100000 nM (inactive); in test [18], 64100 nM (inactive). For the same compound, the GI50 is > 65800 nM (inactive) in test [19] and > 71100 nM (inactive) in test [20].
For `Nc1c(-c2ccc(Cl)c(Cl)c2)c2ccc([N+](=O)[O-])cc2c(=O)n1-c1nc2ccccc2s1`, the GI50 is 448 nM (active) in test [1]; 719 nM (active) in [2]; 419 nM (active) in [3]; 675 nM (active) in test [4]; 403 nM (active) in test [5]; 1920 nM (inactive) in test [6]. Also, the GI50 in test [7] was 369 nM (active); in test [8], 538 nM (active); in test [9], 266 nM (active); in test [10], 471 nM (active); in [11], 202 nM (active); in test [12] it was 767 nM (active). Besides, the GI50 in [13] is 386 nM (active); in test [14], 1500 nM (inactive); in [15] it was 425 nM (active); in [16], 1060 nM (active); in test [17] it was 318 nM (active); in test [18] it was 382 nM (active). The results for the GI50 in test [19] and in test [20] were 582 nM (active) and 1070 nM (active), respectively.
With `Cc1n(Cc2ccccc2)c2c([n+]1C)C(=O)c1ccccc1C2=O`, the GI50 in test [1] was 873 nM (active); in test [2], 3150 nM (inactive); in test [3], 170 nM (active); in [4], 90.2 nM (active); in test [5], 17.1 nM (active); in [6], 167 nM (active). The GI50 in test [7] is 132 nM (active); in [8], 47.3 nM (active); in test [9], 43.4 nM (active); in [10] it was 34 nM (active); in [11], 41.6 nM (active); in test [12], 84.5 nM (active). Further, the GI50 in test [13] was 108 nM (active); in [14] it was < 10 nM (active); in test [15], 32.4 nM (active); in [16] it was 40.7 nM (active); in [17], 31.8 nM (active); in test [18], < 13.6 nM (active). The values for the GI50 in test [19] and in test [20] were 183 nM (active) and 73.6 nM (active), respectively.
On to `CC(=O)NC(CC(C)C)C(=O)NC(Cc1ccccc1)C(=O)CCl` (stereo not drawn) (Ac-Leu-Phe-CH2Cl; configuration not given here), for which the GI50 in [1] is 11100 nM (inactive); in test [2] it was 17400 nM (inactive); in test [3] it was 11700 nM (inactive); in test [4], 6890 nM (inactive); in test [5], 5050 nM (inactive); in test [6], 17500 nM (inactive). Also, the GI50 is 10300 nM (inactive) in [7]; 2670 nM (inactive) in [8]; 13100 nM (inactive) in [9]; 7730 nM (inactive) in test [10]; 5220 nM (inactive) in [11]; 4000 nM (inactive) in test [12]. Besides, the GI50 in test [13] was 20800 nM (inactive); in [14] it was 5430 nM (inactive); in [15] it was 16600 nM (inactive); in [16] it was 18300 nM (inactive); in test [17] it was 2210 nM (inactive); in test [18], 13200 nM (inactive). In addition, the GI50 in test [19] was 12300 nM (inactive); in test [20] it was 14100 nM (inactive).
